Key:
Type in all cases: cell-based
[1] = target: T1, Cloned human M1 receptor (CHRM1) stably expressed in HEK293 cells (Homo sapiens, UniProt P11229); assay: CHRM1 Ca++ Flux Assay (agonist mode, FDSS 7000EX); conditions: for M1 FDSS PA: Percent Activity; for EC50: geometric mean if tested more than once; for Emax: HEK293, Percent Activity, read-out: M1 FDSS PA
T1 construct: expressed in transfected cells; host or cells: HEK293
T1 sequence (P11229 1-460): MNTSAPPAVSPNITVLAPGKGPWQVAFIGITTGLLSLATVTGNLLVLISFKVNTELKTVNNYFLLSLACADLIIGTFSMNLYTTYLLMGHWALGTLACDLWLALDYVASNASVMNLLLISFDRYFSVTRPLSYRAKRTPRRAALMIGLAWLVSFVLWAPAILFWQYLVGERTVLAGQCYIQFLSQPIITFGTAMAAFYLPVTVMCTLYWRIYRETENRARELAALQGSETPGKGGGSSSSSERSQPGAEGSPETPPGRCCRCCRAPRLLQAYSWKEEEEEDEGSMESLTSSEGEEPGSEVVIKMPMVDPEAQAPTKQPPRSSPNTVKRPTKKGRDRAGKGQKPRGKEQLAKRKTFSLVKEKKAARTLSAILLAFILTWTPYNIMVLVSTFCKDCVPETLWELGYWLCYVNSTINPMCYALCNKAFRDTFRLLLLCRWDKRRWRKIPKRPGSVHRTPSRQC
In short: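 Compounds tested as agonists at 11 concentrations in triplicate, with calcium traces captured over 3 minutes. Cells were HEK293 with stable human CHRM1 expression, plated overnight at 25K/well and loaded with calcium dye. Responses normalized to carbachol EC100 and fitted by four-parameter nonlinear regression.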

[2] = target: T2, human cloned CHRM3 receptor (M3_CHO cells) (Homo sapiens, UniProt P20309); assay: CHRM3 Ca++ Flux Assay (agonist mode, FDSS 7000EX); conditions: for M3 FDSS PA / Emax: Percent Activity measured to EC100 of Carbachol; for EC50: agonist mode, geometric mean if tested more than once, read-out: M3 FDSS EC50; for Emax: read-out: M3 FDSS PA
T2 construct: expressed in transfected cells; host or cells: CHO-K1
T2 sequence (P20309 whole entry): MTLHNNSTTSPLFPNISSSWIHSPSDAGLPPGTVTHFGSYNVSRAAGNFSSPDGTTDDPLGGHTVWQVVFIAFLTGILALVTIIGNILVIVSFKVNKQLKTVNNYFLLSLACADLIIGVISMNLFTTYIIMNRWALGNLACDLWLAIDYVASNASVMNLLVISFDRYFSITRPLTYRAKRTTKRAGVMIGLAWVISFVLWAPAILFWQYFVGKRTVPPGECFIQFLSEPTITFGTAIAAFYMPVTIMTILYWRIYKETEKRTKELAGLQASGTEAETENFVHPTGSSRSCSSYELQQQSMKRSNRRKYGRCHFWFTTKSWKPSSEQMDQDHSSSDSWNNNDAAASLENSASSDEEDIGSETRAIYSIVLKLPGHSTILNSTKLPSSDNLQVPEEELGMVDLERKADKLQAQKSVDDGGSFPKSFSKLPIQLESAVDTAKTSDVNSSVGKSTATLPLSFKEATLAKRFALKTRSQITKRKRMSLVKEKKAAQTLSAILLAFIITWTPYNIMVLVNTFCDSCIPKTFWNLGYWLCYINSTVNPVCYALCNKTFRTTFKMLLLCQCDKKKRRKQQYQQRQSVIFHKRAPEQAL
In short: (§1)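 CHO-K1 cells stably expressing human M3 or M5 receptor were dye-loaded for at least 1 h in HBSS with 20 mM HEPES and 2.5 mM probenecid, then given 11-point compound doses in triplicate.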

[3] = target: T3, human cloned CHRM5 receptor (M5_CHO) (Homo sapiens, UniProt P08912); assay: CHRM5 Ca++ Flux Assay (agonist mode, FDSS 7000EX); conditions: for M5 FDSS PA / Emax: Percent Activity measured to EC100 of Carbachol; for EC50: agonist mode, geometric mean if tested more than once, read-out: M5 FDSS EC50; for Emax: read-out: M5 FDSS PA
T3 construct: expressed in transfected cells; host or cells: CHO (M5_CHO)
T3 sequence (P08912 1-532): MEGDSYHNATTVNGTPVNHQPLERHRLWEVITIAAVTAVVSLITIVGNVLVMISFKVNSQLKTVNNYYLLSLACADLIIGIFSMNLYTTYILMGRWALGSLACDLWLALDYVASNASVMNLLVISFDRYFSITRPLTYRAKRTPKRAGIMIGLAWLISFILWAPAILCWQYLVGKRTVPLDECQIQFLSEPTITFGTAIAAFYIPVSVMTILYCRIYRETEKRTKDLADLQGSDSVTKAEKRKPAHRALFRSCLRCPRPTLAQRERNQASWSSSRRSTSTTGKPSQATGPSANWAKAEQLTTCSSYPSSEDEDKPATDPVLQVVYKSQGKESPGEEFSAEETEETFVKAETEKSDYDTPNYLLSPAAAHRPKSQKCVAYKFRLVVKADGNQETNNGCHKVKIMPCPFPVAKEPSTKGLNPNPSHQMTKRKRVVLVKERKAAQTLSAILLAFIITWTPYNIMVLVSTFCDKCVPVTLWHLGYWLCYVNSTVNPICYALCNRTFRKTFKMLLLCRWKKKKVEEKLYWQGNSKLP
In short: as §1

Structure (SMILES) | M1 FDSS PA [1] [%] | EC50 [1] [µM] | M3 FDSS PA [2] [%] | EC50 [2] [µM] | M5 FDSS PA [3] [%] | EC50 [3] [µM] | Emax [1] [%] | Emax [2] [%] | Emax [3] [%]
OC1CCC(c2ccccc2C2CCN([C@@H]3CCC4(C3)CN(c3nnco3)C4)CC2)CC1 (single isomer, unassigned) [Example 2O, (1s,4r)-4-(2-(1-((R)-2-(1,3,4-oxadiazol-2-yl)-2-azaspiro[3.4]octan-6-yl)piperidin-4-yl)phenyl)cyclohexan-1-ol or (1r,4r)-4-(2-(1-((R)-2-(1,3,4-oxadiazol-2-yl)-2-azaspiro[3.4]octan-6-yl)piperidin-4-yl)phenyl)cyclohexan-1-ol] | 77 | 0.081 | 0 | > 25 | 0 | > 25 | – | – | –
COc1ccccc1C1CCN([C@@H]2CCC3(C2)CN(c2cncc(C)n2)C3)CC1 [Example 5G, (R)-6-(4-(2-methoxyphenyl)piperidin-1-yl)-2-(6-methylpyrazin-2-yl)-2-azaspiro[3.4]octane] | – | > 25 | – | > 25 | – | > 25 | 0 | 0 | 0
COc1ccccc1C1CCN([C@@H]2CCC3(C2)CN(c2cnccn2)C3)CC1 [Example 5H, (R)-6-(4-(2-methoxyphenyl)piperidin-1-yl)-2-(pyrazin-2-yl)-2-azaspiro[3.4]octane] | – | 0.048 | – | > 25 | – | > 25 | 50 | 0 | 0
O=C(N1CC2(CC[C@@H](N3CCC(c4cc(F)ccc4C4CCOCC4)CC3)C2)C1)C1(F)CC1 (single isomer, unassigned) [Example 9L, (R)-(6-(4-(5-fluoro-2-(tetrahydro-2H-pyran-4-yl)phenyl)piperidin-1-yl)-2-azaspiro[3.4]octan-2-yl)(1-fluorocyclopropyl)methanone or (S)-(6-(4-(5-fluoro-2-(tetrahydro-2H-pyran-4-yl)phenyl)piperidin-1-yl)-2-azaspiro[3.4]octan-2-yl)(1-fluorocyclopropyl)methanone] | 31 | 0.569 | 0 | > 25 | 0 | > 25 | – | – | –
Cc1nnc(COc2ccccc2C2CCN([C@@H]3CCC4(C3)CN(C(=O)C3(F)CC3)C4)CC2)s1 (single isomer, unassigned) [Example 7R, (R)-(1-fluorocyclopropyl)(6-(4-(2-((5-methyl-1,3,4-thiadiazol-2-yl)methoxy)phenyl)piperidin-1-yl)-2-azaspiro[3.4]octan-2-yl)methanone or (S)-(1-fluorocyclopropyl)(6-(4-(2-((5-methyl-1,3,4-thiadiazol-2-yl)methoxy)phenyl)piperidin-1-yl)-2-azaspiro[3.4]octan-2-yl)methanone] | 0 | > 25 | 0 | > 25 | 0 | > 25 | – | – | –
COc1ccc(Cl)cc1C1CCN([C@@H]2CCC3(C2)CN(c2ccnnc2)C3)CC1 [Example 5P, (R)-6-(4-(5-chloro-2-methoxyphenyl)piperidin-1-yl)-2-(pyridazin-4-yl)-2-azaspiro[3.4]octane] | – | 0.196 | – | > 25 | – | 13.4 | 60 | 0 | 8

Next, values leading:

M1 FDSS PA [1] [%] | EC50 [1] [µM] | M3 FDSS PA [2] [%] | EC50 [2] [µM] | M5 FDSS PA [3] [%] | EC50 [3] [µM] | Emax [1] [%] | Emax [2] [%] | Emax [3] [%] | Structure (SMILES)
1 | > 25 | 0 | > 25 | 0 | > 25 | – | – | – | O=C(N1CC2(CC[C@@H](N3CCC(c4ccccc4OC4CC5(COC5)C4)CC3)C2)C1)C1(F)CC1 (single isomer, unassigned) [Example 11D, (R)-(6-(4-(2-((2-oxaspiro[3.3]heptan-6-yl)oxy)phenyl)piperidin-1-yl)-2-azaspiro[3.4]octan-2-yl)(1-fluorocyclopropyl)methanone or (S)-(6-(4-(2-((2-oxaspiro[3.3]heptan-6-yl)oxy)phenyl)piperidin-1-yl)-2-azaspiro[3.4]octan-2-yl)(1-fluorocyclopropyl)methanone]
9 | 0.03 | 0 | > 25 | 0 | > 25 | – | – | – | O=C(N1CC2(CC[C@@H](N3CCC(c4cc(F)ccc4OC4CC5(COC5)C4)CC3)C2)C1)C1(F)CC1 (single isomer, unassigned) [Example 11B, (R)-(6-(4-(2-((2-oxaspiro[3.3]heptan-6-yl)oxy)-5-fluorophenyl)piperidin-1-yl)-2-azaspiro[3.4]octan-2-yl)(1-fluorocyclopropyl)methanone or (S)-(6-(4-(2-((2-oxaspiro[3.3]heptan-6-yl)oxy)-5-fluorophenyl)piperidin-1-yl)-2-azaspiro[3.4]octan-2-yl)(1-fluorocyclopropyl)methanone]
